Earlier results as cited in patent US20040143855A1, “Ion channels as targets for sleep-related drugs” (priority 2002, published 2004).

Key:
Drosophila = conditions: flies given the drug
TREK-1 = biological target: T1, TREK-1 (Homo sapiens, UniProt O95069); conditions: volatile general anesthetics
T1 sequence (O95069 1-426): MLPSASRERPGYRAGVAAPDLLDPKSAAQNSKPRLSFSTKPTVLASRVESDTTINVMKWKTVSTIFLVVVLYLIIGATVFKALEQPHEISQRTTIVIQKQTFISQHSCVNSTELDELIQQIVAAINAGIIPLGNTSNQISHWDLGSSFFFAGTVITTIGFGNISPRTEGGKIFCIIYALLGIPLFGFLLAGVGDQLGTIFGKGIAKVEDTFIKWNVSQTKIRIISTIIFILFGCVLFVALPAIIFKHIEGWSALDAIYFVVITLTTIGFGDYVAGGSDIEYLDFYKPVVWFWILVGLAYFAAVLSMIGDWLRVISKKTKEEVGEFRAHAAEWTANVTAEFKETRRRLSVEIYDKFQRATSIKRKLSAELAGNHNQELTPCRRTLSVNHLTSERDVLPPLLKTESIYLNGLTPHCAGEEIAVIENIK

SMILES | sleep (amount) (Drosophila) | effect on TREK-1 channel (TREK-1) | sleep latency (Drosophila)
Cn1c(=O)c2c(ncn2C)n(C)c1=O [caffeine] | dose-dependent decrease in sleep | – | –
ClC(Cl)Cl [chloroform] | – | activated | –
CCOCC [diethylether] | – | activated | –
FC(F)(F)C(Cl)Br (stereo not shown) [halothane] | – | activated | –
OCCOCCN1CCN(C(c2ccccc2)c2ccc(Cl)cc2)CC1 (stereo not shown) [hydroxyzine] | increased sleep | – | reduced its latency
FC(F)OC(Cl)C(F)(F)F (stereo not shown) [isoflurane] | – | activated | –
